Calls of active or inactive are those of the source. No cut-off for these calls is given here.
System: NCI-H660
Test: Cytotoxicity against human NCI-H660 cells assessed as decrease in cell viability at 5 to 10 uM incubated for 48 hrs by CellTiter-Blue assay
Type: functional, cell-based
Details: dose 5-10 µM

For CCCc1cc(C)[nH]c(=O)c1CNC(=O)c1cc(-c2ccnc(N3CCN(C)CC3)c2)cc2c1cnn2C(C)C, which Activity is on record?
The Activity was “Active”.

— ChEMBL document CHEMBL5712074, “Divergent clonal evolution of castration-resistant neuroendocrine prostate cancer” (Nat Med, 2016)
